Experimental findings from patent publication US20080171355A1, “DEVICE FOR TESTING THE EFFECTIVENESS OF DISINFECTANTS ON PROTOZOAN PARASITES” (priority 2006, published 2008) are described below.

Molecules are shown by their SMILES.

The experiment has as its system Oocysts of Eimeria acervulina. Type of experiment: cell-based.

In the case of `CC(=O)OO` [Peracetic Acid], the “Sporulation Rate (%)” value was 65.9%.
